Results on 39 compounds are retold here after ChEMBL document CHEMBL1641405, “Click chemistry inspired one-pot synthesis of 1,4-disubstituted 1,2,3-triazoles and their Src kinase inhibitory activity” (Bioorg Med Chem Lett, 2011).

Each structure is given as a SMILES string. Bounds are passed on as bounds.

Sequence of Tyrosine-protein kinase CSK (Homo sapiens) (P41240 whole entry, looked up): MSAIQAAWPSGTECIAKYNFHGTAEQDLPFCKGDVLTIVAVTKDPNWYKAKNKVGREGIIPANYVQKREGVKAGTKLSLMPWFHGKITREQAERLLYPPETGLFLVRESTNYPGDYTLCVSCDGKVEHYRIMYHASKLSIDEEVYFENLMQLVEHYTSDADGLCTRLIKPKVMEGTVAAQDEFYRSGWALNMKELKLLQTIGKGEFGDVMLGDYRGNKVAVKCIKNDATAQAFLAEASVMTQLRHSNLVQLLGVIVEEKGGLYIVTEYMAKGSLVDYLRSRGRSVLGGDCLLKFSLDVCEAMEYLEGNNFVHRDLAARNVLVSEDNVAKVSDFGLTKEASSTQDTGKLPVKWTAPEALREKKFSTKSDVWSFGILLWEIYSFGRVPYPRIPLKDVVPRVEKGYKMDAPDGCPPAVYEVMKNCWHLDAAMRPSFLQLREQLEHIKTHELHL

The target of one test is T1, Proto-oncogene tyrosine-protein kinase Src (Homo sapiens, UniProt P12931). Nature of the test: Inhibition of c-Src after 60 mins.
T1 sequence (P12931 2-536 limits assumed): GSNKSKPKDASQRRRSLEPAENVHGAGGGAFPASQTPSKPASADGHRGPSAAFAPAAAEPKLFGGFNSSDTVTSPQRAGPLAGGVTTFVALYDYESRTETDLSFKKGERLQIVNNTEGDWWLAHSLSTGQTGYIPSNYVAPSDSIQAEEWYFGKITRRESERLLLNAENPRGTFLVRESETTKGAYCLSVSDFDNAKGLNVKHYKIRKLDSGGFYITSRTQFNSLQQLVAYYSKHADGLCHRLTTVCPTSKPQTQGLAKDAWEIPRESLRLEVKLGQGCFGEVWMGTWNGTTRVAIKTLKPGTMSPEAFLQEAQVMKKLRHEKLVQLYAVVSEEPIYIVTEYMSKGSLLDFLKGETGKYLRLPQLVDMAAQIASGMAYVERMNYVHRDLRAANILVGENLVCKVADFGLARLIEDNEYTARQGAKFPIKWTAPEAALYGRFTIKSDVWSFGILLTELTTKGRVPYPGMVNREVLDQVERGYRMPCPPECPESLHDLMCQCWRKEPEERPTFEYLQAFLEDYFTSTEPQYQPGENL
`Cc1ccc(-c2cn(C3CCCCCC3=O)nn2)cc1` (configuration not stated) yielded an IC50 of 66.1 µM.
For the compound `O=C(Cn1cc(-c2ccccc2)nn1)c1ccccc1`, the IC50 is more than 100 µM.
Still for that read-out and setting: as for `O=C(Cn1cc(-c2ccccc2)nn1)c1ccc(-c2cc3ccccc3oc2=O)cc1`, the figure is 89.5 µM.
For `COc1ccc(C(=O)Cn2cc(-c3cccc(C)c3)nn2)cc1`, the concentration for half-maximal inhibition (IC50) was 72.8 µM.
As for `Cc1ccc(C(=O)Cn2cc(-c3ccc(F)c(C)c3)nn2)cc1`, the IC50 is 82.3 µM.
Compound `Cc1ccc(-c2cn(CC(=O)c3cc4ccccc4oc3=O)nn2)cc1` displayed an IC50 of more than 150 µM.
For the compound `Cc1cc(-c2cn(CC(=O)c3ccccc3)nn2)ccc1F`, it took 81 µM to reach half-maximal inhibition (IC50).
`O=C(/C=C/c1ccccc1)Cn1cc(-c2ccccc2)nn1` yielded an IC50 of more than 100 µM.
`Cc1ccc(-c2cn(C3CCCCC3=O)nn2)cc1` (configuration not stated) showed an IC50 of 33.9 µM.
Take `CCNC(=O)Cn1cc(-c2ccccc2)nn1`: the IC50 is more than 150 µM.
The same measure, in the same setting: as for `O=C(Cn1cc(-c2ccccc2)nn1)c1cccs1`, the figure is 32.5 µM; as for `COc1ccc(C(=O)Cn2cc(-c3ccccc3)nn2)cc1`, more than 100 µM; as for `COC(=O)Cn1cc(-c2ccccc2)nn1`, more than 100 µM.
Same read-out and setting: as for `O=C(Cn1cc(-c2ccccc2)nn1)c1ccc(Cl)cc1`, the figure is 139 µM.
The same measure, in the same setting: as for `CC(=O)Cn1cc(-c2ccc(C)cc2)nn1`, the figure is more than 150 µM.
On to `CC(=O)Cn1cc(-c2ccccc2)nn1`, for which the 50% inhibitory concentration (IC50) is more than 150 µM.
In turn, `Cc1ccc(-c2cn(C3CCCC3=O)nn2)cc1` (configuration not stated) showed an IC50 of 62.1 µM.
`O=C1CCCCC1n1cc(-c2ccccc2)nn1` (configuration not stated): half-maximal inhibition (IC50) was put at 43.2 µM.
Same read-out and setting: as for `O=C(Cn1cc(-c2ccsc2)nn1)c1ccc(Cl)cc1`, the figure is more than 150 µM; as for `Cc1ccc(-c2cn(CC(=O)c3ccc(Cl)cc3)nn2)cc1`, 109 µM; as for `Cc1ccc(-c2cn(CC(=O)c3ccccc3)nn2)cc1`, 41.6 µM.
Same read-out and setting: as for `O=C(Cn1cc(CCCCCl)nn1)c1ccc(Br)cc1`, the figure is more than 100 µM.
On to `Cc1ccc(C(=O)Cn2cc(-c3ccc(C)cc3)nn2)cc1`, for which half-maximal inhibition (IC50) was put at 49.8 µM.
In turn, `O=C1CCCC1n1cc(-c2ccccc2)nn1` (configuration not stated) had an IC50 of 106 µM.

Another test addresses Tyrosine-protein kinase CSK (Homo sapiens) (UniProt P41240). Nature of the test: Inhibition of human Cck.
In turn, `Cc1ccc(-c2cn(C3CCCCC3=O)nn2)cc1` (configuration not stated) had an IC50 of more than 100 µM.

The target of the next test is Epidermal growth factor receptor (Homo sapiens, UniProt P00533). Briefly: Inhibition of human EGFR.
Sequence of Epidermal growth factor receptor (P00533 whole entry): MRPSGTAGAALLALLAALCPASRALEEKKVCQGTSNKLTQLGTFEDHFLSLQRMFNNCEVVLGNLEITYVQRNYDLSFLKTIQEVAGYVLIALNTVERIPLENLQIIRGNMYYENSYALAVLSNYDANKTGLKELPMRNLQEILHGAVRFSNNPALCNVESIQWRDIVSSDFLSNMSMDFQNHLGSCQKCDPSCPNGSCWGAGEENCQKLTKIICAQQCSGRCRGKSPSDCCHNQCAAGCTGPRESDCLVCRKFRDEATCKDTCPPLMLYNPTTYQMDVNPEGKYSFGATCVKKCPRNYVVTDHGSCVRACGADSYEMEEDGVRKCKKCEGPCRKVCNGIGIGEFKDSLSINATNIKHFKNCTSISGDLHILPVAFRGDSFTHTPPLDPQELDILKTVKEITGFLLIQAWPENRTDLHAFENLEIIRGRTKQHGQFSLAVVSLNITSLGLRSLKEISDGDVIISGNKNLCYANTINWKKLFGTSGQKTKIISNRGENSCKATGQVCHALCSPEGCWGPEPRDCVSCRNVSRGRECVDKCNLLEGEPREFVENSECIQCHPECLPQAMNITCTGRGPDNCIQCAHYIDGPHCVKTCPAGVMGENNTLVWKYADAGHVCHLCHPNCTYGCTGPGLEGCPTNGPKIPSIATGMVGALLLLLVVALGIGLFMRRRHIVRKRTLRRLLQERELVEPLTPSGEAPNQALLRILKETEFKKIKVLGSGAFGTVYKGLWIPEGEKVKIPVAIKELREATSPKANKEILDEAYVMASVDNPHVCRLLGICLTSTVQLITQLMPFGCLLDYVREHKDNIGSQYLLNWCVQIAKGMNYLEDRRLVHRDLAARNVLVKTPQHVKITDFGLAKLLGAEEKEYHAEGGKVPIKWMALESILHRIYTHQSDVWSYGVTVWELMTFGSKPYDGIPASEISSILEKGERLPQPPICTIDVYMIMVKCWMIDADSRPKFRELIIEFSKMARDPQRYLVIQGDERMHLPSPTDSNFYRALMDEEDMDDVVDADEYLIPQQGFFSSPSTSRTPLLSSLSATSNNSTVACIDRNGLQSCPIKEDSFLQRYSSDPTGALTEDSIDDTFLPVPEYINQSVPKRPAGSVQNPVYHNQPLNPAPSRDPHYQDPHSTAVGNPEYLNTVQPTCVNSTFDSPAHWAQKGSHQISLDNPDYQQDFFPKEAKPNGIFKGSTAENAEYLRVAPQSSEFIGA
As for `Cc1ccc(-c2cn(C3CCCCC3=O)nn2)cc1` (configuration not stated), the IC50 was more than 100 µM.

The target in a further test is T1, Proto-oncogene tyrosine-protein kinase Src. Briefly: Inhibition of c-Src at 75 uM after 60 mins.
On to `O=C1CCCC1n1cc(-c2ccc(F)cc2)nn1` (configuration not stated), for which the inhibition is less than 10%.
Still for that read-out and setting: as for `O=C1CCCCC1n1cc(-c2ccc(F)cc2)nn1` (configuration not stated), the figure is less than 10%; as for `CCCCc1cn(CC(=O)c2ccc(Br)cc2)nn1`, less than 10%.
Regarding `O=C1CCCC(n2cc(-c3ccccc3)nn2)C1` (configuration not stated), the inhibition was less than 10%.
The compound `COc1ccc(-c2cn(CC(=O)c3ccc(Cl)cc3)nn2)cc1` returned an inhibition of less than 10%.
On the same count and under the same terms, as for `COc1ccc(-c2cn(C3CCCCC3=O)nn2)cc1` (configuration not stated), the figure is less than 10%; as for `CCCCc1cn(CC(=O)c2ccccc2)nn1`, less than 10%; as for `O=C(Cn1cc(-c2ccc(F)cc2)nn1)c1ccc(Cl)cc1`, less than 10%.
The compound `Cc1ccc(-c2cn(CC(=O)c3ccc(Br)cc3)nn2)cc1` had an inhibition of less than 10%.
The same measure, in the same setting: as for `O=C1CCC(n2cc(-c3ccccc3)nn2)C1` (configuration not stated), the figure is less than 10%; as for `COc1ccc(-c2cn(C3CCCC3=O)nn2)cc1` (configuration not stated), less than 10%.
Compound `O=C1CCCCC1n1cc(-c2ccsc2)nn1` (configuration not stated) yielded an inhibition of less than 10%.
Turning to `O=C(Cn1cc(-c2ccc(F)cc2)nn1)c1ccc(Br)cc1`, the inhibition was less than 10%.
Regarding `O=C(Cn1cc(-c2ccccn2)nn1)c1ccccc1`, the inhibition is less than 10%.
On the same count and under the same terms, as for `O=C1CCCC1n1cc(-c2ccsc2)nn1` (configuration not stated), the figure is less than 10%.

The target of a further test is Tyrosine-protein kinase Lck (Homo sapiens, UniProt P06239). Briefly: Inhibition of human activated Lck.
Sequence of Tyrosine-protein kinase Lck (P06239 whole entry): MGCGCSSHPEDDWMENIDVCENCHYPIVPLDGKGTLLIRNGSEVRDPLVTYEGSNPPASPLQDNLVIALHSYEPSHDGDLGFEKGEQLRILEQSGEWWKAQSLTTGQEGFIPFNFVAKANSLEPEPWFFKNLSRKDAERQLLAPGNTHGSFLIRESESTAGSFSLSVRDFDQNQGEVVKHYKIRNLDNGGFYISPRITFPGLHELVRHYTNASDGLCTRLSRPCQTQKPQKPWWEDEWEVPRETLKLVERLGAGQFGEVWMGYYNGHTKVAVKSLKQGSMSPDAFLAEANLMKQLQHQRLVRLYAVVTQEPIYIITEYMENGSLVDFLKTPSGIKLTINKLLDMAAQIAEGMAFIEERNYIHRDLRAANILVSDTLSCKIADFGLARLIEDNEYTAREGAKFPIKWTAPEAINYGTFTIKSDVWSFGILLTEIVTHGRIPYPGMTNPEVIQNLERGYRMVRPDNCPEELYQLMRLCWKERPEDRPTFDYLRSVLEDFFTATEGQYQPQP
Turning to `Cc1ccc(-c2cn(C3CCCCC3=O)nn2)cc1` (configuration not stated), the IC50 was more than 100 µM.
